Target: T1, VLA4 (Homo sapiens, UniProt P05556+P13612)
T1 construct: endogenous in cells; host or cells: Ramos cells
Test: Inhibition of VLA4-dependent adhesion to BSA-CS1 (labelled Ramos cells)
Assay type: cell-based
Conditions: binding of BCECF-AM labelled Ramos cells to CS1 peptide-coated wells, 2 mM MnCl2, 30 minutes at room temperature; IC50 range
Description: For example, the cell adhesion inhibitory activity of these compounds may be measured by determining the concentration of inhibitor required to block the binding of VLA-4-expressing cells to fibronectin- or CS1-coated plates. In this assay microtiter wells are coated with either fibronectin (containing the CS-1 sequence) or CS-1. If CS-1 is used, it must be conjugated to a carrier protein, such as bovine serum albumin, in order to bind to the wells. Once the wells are coated, varying concentrations of the test compound are then added together with appropriately labelled, VLA-4-expressing cells. Alternatively, the test compound may be added first and allowed to incubate with the coated wells prior to the addition of the cells. The cells are allowed to incubate in the wells for at least 30 minutes. Following incubation, the wells are emptied and washed. Inhibition of binding is measured by quantitating the fluorescence or radioactivity bound to the plate for each of the various concentrations of test compound, as well as for controls containing no test compound.
VLA-4-expressing cells that may be utilized in this assay include Ramos cells, Jurkat cells, A375 melanoma cells, as well as human peripheral blood lymophocytes (PBLs). The cells used in this assay may be fluorescently or radioactively labelled.
This assay was used to assess the potency of VLA4-directed inhibitory compounds of this invention.
We dissolved BSA-SMCC (Pierce Chemical, Rockford, Ill.; Catalog # 77115) in H2O at a concentration of 10 mg/mL. [SEQ ID NO:4]: […](“Cys-Tyr-CS1 peptide”), which we synthesized by conventional solid phase chemistry and purified by HPLC, was dissolved in 10 mM HEPES pH 5, 50 mM NaCl and 0.1 mM EDTA also at a concentration of 10 mg/mL. We then mixed 500 μL of BSA-SMCC, 250 μL of Cys-Tyr-CS1 peptide and 75 μL of […] and allowed the conjugation reaction to proceed for 30 minutes. We stopped the reaction by adding 1 μL of beta-mercaptoethanol. Samples were analyzed for cross-linking by SDS-PAGE. This reaction produced multiple molecules of the Cys-Tyr-CS1 peptide conjugate to each BSA molecule.
We coated the wells of a Linbro titertek polystyrene 96-well flat bottom plate (Flow Laboratories, Maclean, Va.; catalog #76-231-05) with 100 μL of the above-described BSA-CS1 solution diluted to 1 μg/mL in 0.05 M NaHCO3 (15 mM NaHCO3, 35 mM Na2CO3) pH 9.2. Some wells were not coated with CS1 in order to assess non-specific cell binding (NSB). The plate was then incubated overnight at 4° C.
Following this incubation, the contents of the wells were removed by inverting and blotting the plate. All of the wells were then blocked with 100 μL of 1% BSA in PBS, 0.02% NaN3, for a minimum of one hour at room temperature.
3. Preparation of Fluorescently Labelled Ramos Cells Ramos cells are grown, maintained and labelled in RPMI 1640 culture medium containing 1% BSA. Just prior to running the assay, we added 2′,7′-bis-(2-carboxyethyl)5 (and -6) carboxyfluorescein acetoxymethyl ester (“BCECF-AM”; Molecular Probes Inc., Eugene, Oreg.; catalog #B-1150) to a final concentration of 2 μM to a culture of Ramos cells (4×10^6 cells/mL). We incubated the cells for 20 minutes at 37° C.
Following labelling, the cells were washed twice in assay buffer (24 mM TRIS, 137 mM NaCl, 2.7 mM KCl, pH 7.4, containing 0.1% BSA and 2 mM glucose) to remove any cations originating from the culture medium. The cells were then resuspended in assay buffer to 4×10^6 cells/mL and 2 mM MnCl2 was added to upregulate VLA4 on the surface of the cells.
Immediately prior to running the assay, we removed the BSA blocking solution from the 96-well plates and washed the wells with 100 μL of assay buffer. We then added to each well 25 μL of test cell adhesion inhibitory compound at 2× the final concentration and 25 μL of the labelled Ramos cells. Final concentrations were selected across a range of anticipated IC50s, usually between 0.01 nM–10 μM. […]

T1 sequence (P13612 34-1032): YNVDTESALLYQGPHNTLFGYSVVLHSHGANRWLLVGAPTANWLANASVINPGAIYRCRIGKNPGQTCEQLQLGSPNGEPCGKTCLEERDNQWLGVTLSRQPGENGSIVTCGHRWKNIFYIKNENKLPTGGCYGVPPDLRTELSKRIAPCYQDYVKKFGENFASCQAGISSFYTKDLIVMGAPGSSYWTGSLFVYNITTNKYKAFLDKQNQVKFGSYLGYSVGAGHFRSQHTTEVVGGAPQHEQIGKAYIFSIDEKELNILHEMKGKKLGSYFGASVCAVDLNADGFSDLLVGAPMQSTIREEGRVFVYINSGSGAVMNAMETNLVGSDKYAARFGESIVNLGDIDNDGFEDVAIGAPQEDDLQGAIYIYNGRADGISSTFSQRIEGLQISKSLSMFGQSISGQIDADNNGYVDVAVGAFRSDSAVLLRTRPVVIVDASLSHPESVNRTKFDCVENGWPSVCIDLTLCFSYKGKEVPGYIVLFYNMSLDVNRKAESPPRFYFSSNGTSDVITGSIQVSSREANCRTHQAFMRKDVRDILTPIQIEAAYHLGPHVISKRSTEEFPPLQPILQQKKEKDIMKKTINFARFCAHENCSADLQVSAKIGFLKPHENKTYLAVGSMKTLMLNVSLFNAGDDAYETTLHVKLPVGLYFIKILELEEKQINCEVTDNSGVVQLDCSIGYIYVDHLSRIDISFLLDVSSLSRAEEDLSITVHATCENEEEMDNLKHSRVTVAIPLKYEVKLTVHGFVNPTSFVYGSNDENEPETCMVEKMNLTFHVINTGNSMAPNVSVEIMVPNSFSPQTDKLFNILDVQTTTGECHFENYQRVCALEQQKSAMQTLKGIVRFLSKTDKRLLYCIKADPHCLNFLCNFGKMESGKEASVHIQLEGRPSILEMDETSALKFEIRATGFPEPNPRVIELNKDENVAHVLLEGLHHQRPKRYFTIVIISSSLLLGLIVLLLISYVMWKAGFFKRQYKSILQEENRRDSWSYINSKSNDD
T1 sequence (P05556 21-798): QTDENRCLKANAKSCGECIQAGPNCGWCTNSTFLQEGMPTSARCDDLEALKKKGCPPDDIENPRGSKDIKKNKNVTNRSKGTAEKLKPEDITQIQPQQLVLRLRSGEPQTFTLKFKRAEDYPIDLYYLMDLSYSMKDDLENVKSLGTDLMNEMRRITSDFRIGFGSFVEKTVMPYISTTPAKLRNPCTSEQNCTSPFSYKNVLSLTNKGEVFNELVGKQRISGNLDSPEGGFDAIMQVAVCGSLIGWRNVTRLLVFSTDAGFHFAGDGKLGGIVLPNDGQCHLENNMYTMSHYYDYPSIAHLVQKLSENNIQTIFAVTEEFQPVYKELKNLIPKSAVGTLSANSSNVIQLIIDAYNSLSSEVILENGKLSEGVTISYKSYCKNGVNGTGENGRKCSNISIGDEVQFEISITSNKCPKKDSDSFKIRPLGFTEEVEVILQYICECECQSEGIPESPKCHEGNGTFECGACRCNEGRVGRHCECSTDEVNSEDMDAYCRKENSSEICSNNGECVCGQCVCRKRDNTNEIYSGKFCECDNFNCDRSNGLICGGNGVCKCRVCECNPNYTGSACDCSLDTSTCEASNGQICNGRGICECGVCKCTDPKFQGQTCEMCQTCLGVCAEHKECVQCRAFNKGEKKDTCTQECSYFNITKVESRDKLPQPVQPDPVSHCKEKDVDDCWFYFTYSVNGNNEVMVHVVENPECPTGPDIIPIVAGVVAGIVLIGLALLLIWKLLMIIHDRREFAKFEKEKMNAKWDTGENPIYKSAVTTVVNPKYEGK

| Compound | IC50 [nM] |
| --- | --- |
| COc1ccccc1C(CC(=O)O)NC(=O)C(CC(C)C)NC(=O)Cc1ccccc1 (stereo not drawn) [compound 1159] | > 10000 |
| Cc1cccc(NC(=O)Nc2ccc(CC(=O)NC(CC(C)C)C(=O)NC(CC(=O)O)c3ccc4c(c3)OCO4)cc2)c1 (stereo not drawn) [compound 1168] | 50 to 10000 |
| CC(C)CC(NC(=O)Cc1ccc(NC(=O)NCc2ccccc2)cc1)C(=O)NC(CC(=O)O)c1ccc2c(c1)OCO2 (stereo not drawn) [compound 1169] | 50 to 10000 |
| COc1ccc(C(CC(=O)O)NC(=O)C(CCSC)NC(=O)Cc2ccc(O)cc2)cc1 (stereo not drawn) [compound 1174] | 50 to 10000 |
| COc1ccc(C(CC(=O)O)NC(=O)C(CCSC)NC(=O)Cc2ccccc2)cc1 (stereo not drawn) [compound 1175] | 50 to 10000 |
| C#CCN(C)C(=O)CC(NC(=O)Cc1ccc(NC(=O)Nc2ccccc2)cc1)C(=O)NC(CC(=O)O)c1ccc2c(c1)OCO2 (stereo not drawn) [compound 1177] | 50 to 10000 |
| CC(C)CC(NC(=O)Cc1ccc(NC(=O)Nc2cccc(Cl)c2)cc1)C(=O)NC(CC(=O)O)c1ccc2c(c1)OCO2 (stereo not drawn) [compound 1181] | 50 to 10000 |
| CC(C)CC(NC(=O)Cc1ccc(NC(=O)Nc2ccncc2)cc1)C(=O)NC(CC(=O)O)c1ccc2c(c1)OCO2 (stereo not drawn) [compound 1182] | 50 to 10000 |
| CC(C)CC(NC(=O)CCCNC(=O)Nc1ccccc1)C(=O)NC(CC(=O)O)c1ccccc1 (stereo not drawn) [compound 1187] | > 10000 |
| CC(C)CC(NC(=O)C1CCc2ccccc21)C(=O)NC(CC(=O)O)c1ccccc1 (stereo not drawn) [compound 1189] | > 10000 |
| COc1ccc(C(CC(=O)O)NC(=O)C(CC(C)C)NC(=O)Cc2ccc(NC(=O)Nc3ccccc3C)cc2)cc1 (stereo not drawn) [compound 1190] | < 50 |
| COc1ccc(C(CC(=O)O)NC(=O)C(CC(C)C)NC(=O)Cc2ccc(NC(=O)Nc3ccccc3OC)cc2)cc1 (stereo not drawn) [compound 1192] | < 50 |
| COc1ccc(C(CC(=O)O)NC(=O)C(CC(C)C)NC(=O)Cc2ccc(NC(=O)Nc3ccccc3)cc2)cc1OC (stereo not drawn) [compound 1196] | < 50 |
| CC(C)CC(NC(=O)Cc1ccc(NC(=O)N2CCOCC2)cc1)C(=O)NC(CC(=O)O)c1ccc2c(c1)OCO2 (stereo not drawn) [compound 1198] | > 10000 |
| CCc1ccccc1NC(=O)Nc1ccc(CC(=O)NC(CC(C)C)C(=O)NC(CC(=O)O)c2ccc3c(c2)OCO3)cc1 (stereo not drawn) [compound 1200] | 50 to 10000 |
| CC(C)CC(NC(=O)Cc1ccc(NC(=O)Nc2ccccc2[N+](=O)[O-])cc1)C(=O)NC(CC(=O)O)c1ccc2c(c1)OCO2 (stereo not drawn) [compound 1201] | 50 to 10000 |
| COc1ccc(C(CC(=O)O)NC(=O)C(CC(C)C)NC(=O)Cc2ccc(NC(=O)Nc3ccccc3C(C)C)cc2)cc1 (stereo not drawn) [compound 1207] | > 10000 |
| CCc1ccccc1NC(=O)Nc1ccc(CC(=O)NC(CC(C)C)C(=O)NC(CC(=O)O)c2ccc(OC)cc2)cc1 (stereo not drawn) [compound 1208] | 50 to 10000 |
| CC(C)CC(NC(=O)Cc1ccc(NC(=O)Nc2ccccc2C(C)(C)C)cc1)C(=O)NC(CC(=O)O)c1ccc2c(c1)OCO2 (stereo not drawn) [compound 1209] | > 10000 |
| CN(C)C(=O)CC(NC(=O)Cc1ccc(NC(=O)Nc2ccccc2)cc1)C(=O)NC(CC(=O)O)c1ccc2c(c1)OCO2 (stereo not drawn) [compound 1214] | 50 to 10000 |
| COc1ccc(C(CC(=O)O)NC(=O)C(CC(C)C)NC(=O)Cc2ccc(NC(=O)Nc3ccccn3)cc2)cc1OC (stereo not drawn) [compound 1218] | 50 to 10000 |
| COc1ccc(C(CC(=O)O)NC(=O)C(CC(C)C)NC(=O)Cc2ccc(NC(=O)Nc3cccnc3C)cc2)cc1 (stereo not drawn) [compound 1220] | 50 to 10000 |
| COc1cc(CC(=O)NC(CC(C)C)C(=O)NC(CC(=O)O)c2ccc3c(c2)OCO3)ccc1NC(=O)Nc1ccccc1C (stereo not drawn) [compound 1221] | < 50 |
| COc1cc(CC(=O)NC(CC(C)C)C(=O)NC(CC(=O)O)c2ccc3c(c2)OCO3)ccc1NC(=O)Nc1ccccc1Cl (stereo not drawn) [compound 1222] | < 50 |
| COc1ccc(C(CC(=O)O)NC(=O)C(CCSC)NC(=O)Cc2ccc(NC(=O)Nc3ccccc3C)cc2)cc1 (stereo not drawn) [compound 1238] | < 50 |
| Cc1ccccc1NC(=O)Nc1ccc(CC(=O)NC(CCS(C)(=O)=O)C(=O)NC(CC(=O)O)c2ccc3c(c2)OCO3)cc1 (stereo not drawn) [compound 1245] | < 50 |
| Cc1ccccc1NC(=O)Nc1ccc(CC(=O)NC(CC(C)C)C(=O)NC(CC(=O)O)c2ccc(F)cc2)cc1 (stereo not drawn) [compound 1248] | < 50 |

Now from value to compound:

| IC50 [nM] | Compound |
| --- | --- |
| 50 to 10000 | CSCCC(NC(=O)Cc1ccc(NC(=O)Nc2ccccc2)cc1)C(=O)NC(CC(=O)O)c1ccc2c(c1)OCO2 (stereo not drawn) [compound 1163] |
| 50 to 10000 | CSCCC(NC(=O)Cc1ccccc1)C(=O)NC(CC(=O)O)c1ccc2c(c1)OCO2 (stereo not drawn) [compound 1164] |
| 50 to 10000 | O=C(O)CC(NC(=O)C(CC(=O)N1CCOCC1)NC(=O)Cc1ccc(NC(=O)Nc2ccccc2)cc1)c1ccc2c(c1)OCO2 (stereo not drawn) [compound 1170] |
| 50 to 10000 | COc1ccc(C(CC(=O)O)NC(=O)C(CC(C)C)NC(=O)Cc2ccc(O)cc2)cc1 (stereo not drawn) [compound 1173] |
| 50 to 10000 | O=C(O)CC(NC(=O)C(CC(=O)N1CCSCC1)NC(=O)Cc1ccc(NC(=O)Nc2ccccc2)cc1)c1ccc2c(c1)OCO2 (stereo not drawn) [compound 1176] |
| 50 to 10000 | COc1ccc(C(CC(=O)O)NC(=O)C(CC(C)C)NC(=O)Cc2ccccc2)cc1 (stereo not drawn) [compound 1178] |
| < 50 | Cc1ccccc1NC(=O)Nc1ccc(CC(=O)NC(CC(C)C)C(=O)NC(CC(=O)O)c2ccc3c(c2)OCO3)cc1 (stereo not drawn) [compound 1179] |
| 50 to 10000 | COc1ccc(C(CC(=O)O)NC(=O)C(CC(C)C)NC(=O)Cc2ccc(NC(=O)Nc3nccs3)cc2)cc1 (stereo not drawn) [compound 1180] |
| < 50 | CC(C)CC(NC(=O)Cc1ccc(NC(=O)Nc2ccccc2Cl)cc1)C(=O)NC(CC(=O)O)c1ccc2c(c1)OCO2 (stereo not drawn) [compound 1185] |
| > 10000 | CC(C)CC(NC(=O)C1(c2ccccc2)CC1)C(=O)NC(CC(=O)O)c1ccc2c(c1)OCO2 (stereo not drawn) [compound 1188] |
| 50 to 10000 | O=C(O)CC(NC(=O)C(CCN1CCOCC1)NC(=O)Cc1ccc(NC(=O)Nc2ccccc2)cc1)c1ccc2c(c1)OCO2 (stereo not drawn) [compound 1191] |
| 50 to 10000 | COc1ccc(C(CC(=O)O)NC(=O)C(CC(C)C)N(C)C(=O)Cc2ccc(NC(=O)Nc3ccccc3)cc2)cc1 (stereo not drawn) [compound 1193] |
| 50 to 10000 | COc1ccc(C(CC(=O)O)NC(=O)C(CC(C)C)NC(=O)Cc2ccc(NC(=O)Nc3ccccn3)cc2)cc1 (stereo not drawn) [compound 1194] |
| 50 to 10000 | COc1ccc(C(CC(=O)O)NC(=O)C(CC[S+](C)[O-])NC(=O)Cc2ccc(NC(=O)Nc3ccccc3)cc2)cc1 (stereo not drawn) [compound 1199] |
| < 50 | CC(C)CC(NC(=O)Cc1ccc(NC(=O)Nc2ccccc2C(C)C)cc1)C(=O)NC(CC(=O)O)c1ccc2c(c1)OCO2 (stereo not drawn) [compound 1206] |
| < 50 | Cc1ccccc1NC(=O)Nc1ccc(CC(=O)NC(CC(C)C)C(=O)NC(CC(=O)O)c2ccc3c(c2)OCCO3)cc1 (stereo not drawn) [compound 1210] |
| > 10000 | CN(C)CCC(NC(=O)Cc1ccc(NC(=O)Nc2ccccc2)cc1)C(=O)NC(CC(=O)O)c1ccc2c(c1)OCO2 (stereo not drawn) [compound 1215] |
| 50 to 10000 | O=C(O)CC(NC(=O)C(CCC(=O)N1CCOCC1)NC(=O)Cc1ccc(NC(=O)Nc2ccccc2)cc1)c1ccc2c(c1)OCO2 (stereo not drawn) [compound 1216] |
| < 50 | COc1ccc(C(CC(=O)O)NC(=O)C(CCCCNC(=O)OCc2ccccc2)NC(=O)Cc2ccc(NC(=O)Nc3ccccc3C)cc2)cc1OC (stereo not drawn) [compound 1217] |
| 50 to 10000 | COc1ccc(C(CC(=O)O)NC(=O)C(CC(C)C)NC(=O)Cc2ccc(NC(=O)Nc3cccnc3)cc2)cc1OC (stereo not drawn) [compound 1219] |
| < 50 | COc1ccc(C(CC(=O)O)NC(=O)C(CCSC)NC(=O)Cc2ccc(NC(=O)Nc3ccccc3C)cc2)cc1OC (stereo not drawn) [compound 1224] |
